ChEMBL document CHEMBL1142629, “New lipids from the tunicate Cystodytes cf. dellechiajei, as PLA2 inhibitors” (J Nat Prod, 2000)
In brackets after ≈: the same amount, converted by molar mass.

Test system: Crotalus adamanteus
Assay: Inhibition of Crotalus adamanteus venom PLA2

CCCCCCCCCCCCCCCCCCCC[C@@H](O)C(=O)N[C@@H](CO)[C@H](O)[C@H](O)CCCCCCCCCC(C)C
ED50: 100 µg/mL (≈ 159 µM)
